“And” between values parts separate entries of the source, which are not always exact repeats. Identical values can stand only once. Like-named read-outs stand apart in the source and are kept apart here.
What was measured:
alpha-glucosidase [1] = target: T1, alpha-glucosidase (Saccharomyces cerevisiae, UniProt P53341); assay: Inhibition of alpha-glucosidase with pNPG as substrate; format: biochemical; settings: for Mode of inhibition of alpha-glucosidase: Lineweaver-Burk plots
Method: Inhibition of alpha-glucosidase was performed using p-nitrophenol-α-D-glucopyranoside (pNPG) as a substrate. […] After 10 min, the reactions were started with the addition of pNPG at 0.007, 0.015, 0.03, 0.06, 0.125, 0.25, and 5 mM. The mode of inhibition and inhibition constant (Ki) were determined by Lineweaver-Burk plots.

ACC1 = tested on: T2, ACC1; assay: ACC1 inhibition assay (ACC1 Assay Kit, acetyl-CoA decrease by HPLC); format: biochemical; settings: for Effect on ACC1 activity: 0, 1, 10, 100 μM
T2 construct: purchased BPS Bioscience (USA)
Method: An ACC1 inhibition assay was performed using the ACC1 Assay Kit from BPS Bioscience (USA) following the manufacturer’s protocol. […] After a 10-minute pre-incubation period, the reaction was initiated by adding 0.1 ng/mL of ACC1 enzyme. The reactions were allowed to proceed for 40 minutes before being terminated by the addition of 100 μl of chilled acetonitrile. The samples were then centrifuged, and the supernatants were carefully transferred to new tubes for analysis. The rate of reaction was quantified by monitoring the decrease in acetyl-CoA substrate concentration using a C18 HPLC column, employing a mobile phase consisting of a linear gradient of water and methanol.

lipase = target: T3, lipase (Homo sapiens, UniProt P16233); assay: Inhibition of lipase with pNPP as substrate; format: biochemical
T3 sequence (P16233 17-465): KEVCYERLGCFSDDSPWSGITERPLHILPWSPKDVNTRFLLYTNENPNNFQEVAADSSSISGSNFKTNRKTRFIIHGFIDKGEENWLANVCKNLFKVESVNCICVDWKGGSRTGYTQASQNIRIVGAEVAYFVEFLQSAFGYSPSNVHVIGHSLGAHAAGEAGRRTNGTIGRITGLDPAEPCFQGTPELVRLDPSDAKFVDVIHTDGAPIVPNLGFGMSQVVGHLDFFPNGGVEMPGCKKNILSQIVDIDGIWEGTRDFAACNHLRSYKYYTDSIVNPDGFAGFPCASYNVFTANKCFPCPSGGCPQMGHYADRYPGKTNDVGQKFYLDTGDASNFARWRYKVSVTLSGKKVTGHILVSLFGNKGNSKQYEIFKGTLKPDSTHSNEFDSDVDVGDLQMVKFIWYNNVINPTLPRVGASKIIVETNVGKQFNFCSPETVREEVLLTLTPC
Method: Inhibition of lipase was performed using p-nitrophenyl palmitate (pNPP) as a substrate. […] The IC50 was determined by plotting the remaining activity of lipase at each inhibitor concentration and […]. […] After 10 min, the reactions were started by the addition of pNPP at 0.02, 0.03, 0.06, 0.125, 0.25, 3.5 and 5 mM. The mode of inhibition and inhibition constant (Ki) were determined by Lineweaver-Burk plots.

alpha-glucosidase [2] = target: T1, alpha-glucosidase; set-up: method as in doi:10.1016/j.fshw.2014.11.003; settings: cited from earlier work
[3] = HFD-induced rats, versus control group; cited from earlier work

T1 sequence (P53341 whole entry): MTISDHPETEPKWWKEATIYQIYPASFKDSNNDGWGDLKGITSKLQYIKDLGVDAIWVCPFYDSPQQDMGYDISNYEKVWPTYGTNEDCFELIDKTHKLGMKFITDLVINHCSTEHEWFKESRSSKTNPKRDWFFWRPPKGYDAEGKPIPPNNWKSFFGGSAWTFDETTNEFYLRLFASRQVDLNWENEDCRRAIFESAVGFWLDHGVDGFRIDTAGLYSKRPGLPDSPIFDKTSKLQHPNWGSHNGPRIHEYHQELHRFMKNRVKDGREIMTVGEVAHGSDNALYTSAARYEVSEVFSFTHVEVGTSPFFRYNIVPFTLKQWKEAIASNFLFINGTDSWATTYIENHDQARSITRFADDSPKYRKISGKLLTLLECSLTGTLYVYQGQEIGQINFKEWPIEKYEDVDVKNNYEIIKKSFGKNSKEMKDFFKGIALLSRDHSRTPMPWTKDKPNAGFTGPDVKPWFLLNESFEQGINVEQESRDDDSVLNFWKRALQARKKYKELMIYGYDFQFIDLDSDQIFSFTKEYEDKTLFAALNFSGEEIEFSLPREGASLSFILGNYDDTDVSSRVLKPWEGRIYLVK

C[C@H]1O[C@H](O[C@H]2[C@H](O)[C@@H](O)[C@@H](O[C@H]3[C@H](O)[C@@H](O)C(O)O[C@@H]3CO)O[C@@H]2CO)[C@H](O)[C@@H](O)[C@@H]1N[C@H]1C=C(CO)[C@@H](O)[C@H](O)[C@H]1O (some centres unmarked) [Acarbose, acarbose, reference compound]
Mode of inhibition of alpha-glucosidase (alpha-glucosidase [1]): Non-competitive inhibition

CCC1CN2CCc3c([nH]c4cccc(OC)c34)C2CC1/C(=C\OC)C(=O)OC (centres unmarked) [Mitragynine]
Effect on ACC1 activity (ACC1): not and weak inhibitory effect
Mode of inhibition of alpha-glucosidase (alpha-glucosidase [1]): mix-typed inhibition
Alpha-glucosidase IC50 lower than acarbose (alpha-glucosidase [1]; ratio of acarbose IC50 to IC50): 7.3 fold
IC50 (lipase): 27.4 ± 2.9 µM
Ki (lipase; Ki lipase, Lineweaver-Burk plots, pNPP): 13.7 µM and 7 µM
Mode of inhibition of lipase (lipase; Lineweaver-Burk plots): Competitive inhibition

COc1ccc2c(c1)[nH]c1c3c(c(C)cc12)O[C@](C)(CCC=C(C)C)C=C3 [O-methyl mahanine]
IC50 (alpha-glucosidase [2]): 46.1 µM

CCCCCCCCCCC[C@@H](C[C@@H]1OC(=O)[C@H]1CCCCCC)OC(=O)[C@H](CC(C)C)NC=O [Orlistat, orlistat, reference compound]
Mode of inhibition of lipase (lipase; Lineweaver-Burk plots): Competitive inhibition

O=c1c(O)c(-c2ccc(O)c(O)c2)oc2cc(O)cc(O)c12 [Quercetin]
Effect on ACC1 activity (ACC1): decreased ACC1 activity in a dose-dependent manner
Decrease of ACC1 activity (ACC1; 100 μM): 60%
Plasma triglyceride [3]: lower than in the control group
Mode of inhibition of lipase (lipase; Lineweaver-Burk plots): Competitive inhibition

C[C@@H]1O[C@@H](OC[C@H]2O[C@@H](Oc3c(-c4ccc(O)c(O)c4)oc4cc(O)cc(O)c4c3=O)[C@H](O)[C@@H](O)[C@@H]2O)[C@H](O)[C@H](O)[C@H]1O [Rutin, rutin]
IC50 (lipase; pure compounds and positive control, pNPP at Km 1.3 mM, unit given, read-out: Half-maximal inhibitory concentration (IC50) Lipase): > 100 µM

Source: publication PMC10513218, “Effect of Green and Red Thai Kratom (Mitragyna speciosa) on pancreatic digestive enzymes (alpha-glucosidase and lipase) and acetyl-carboxylase 1 activity: A possible therapeutic target for obesity prevention” (PLOS ONE, 2023)
